Test results: patent US12281149B2, “Modulators of G-protein coupled receptors” (priority 2021, dated 2025)
*1 amine or outer side, *2 acyl side, *3 side chain or, on linkers, in order; H or OH if unused. Where a SMILES comes first, the peptide text is derived from it. Side-chain parts run from the residue outwards. [ ]: non-standard residue; d: D form. The star is where a group is joined. Isobutyryl(2-(3-CN-5-F-Ph)) = CC(C)(C(=O)*)c1cc(F)cc(C#N)c1; C20 diacid = O=C(O)CCCCCCCCCCCCCCCCCCC(=O)*; αMePhe(2-F) = C[C@](N)(Cc1ccccc1F)C(=O)O; γGlu = O=C(O)[C@H](CCC(=O)[*:2])N[*:1]; Gla = N[C@@H](CC(C(=O)O)C(=O)O)C(=O)O; d(β3hA) = C[C@@H](N)CC(=O)O; AEEA = NCCOCCOCC(=O)O; Aib = CC(C)(N)C(=O)O; βAla = NCCC(=O)O

Legend:
Format in all cases: cell-based
GLP-1 receptor [1] = biological target: T1, GLP-1 receptor (Homo sapiens, UniProt P43220); test: HitHunter cAMP assay, GLP-1 receptor; details: for EC50: CHO cells stably expressing human GLP-1 receptor, cAMP accumulation, 30 min, read-out: EC50 GLP-1R; for Emax: CHO cells, cAMP, normalized to maximum signal from GLP-1 (high) and DMSO (low), read-out: Emax GLP-1R
T1 sequence (P43220 24-463): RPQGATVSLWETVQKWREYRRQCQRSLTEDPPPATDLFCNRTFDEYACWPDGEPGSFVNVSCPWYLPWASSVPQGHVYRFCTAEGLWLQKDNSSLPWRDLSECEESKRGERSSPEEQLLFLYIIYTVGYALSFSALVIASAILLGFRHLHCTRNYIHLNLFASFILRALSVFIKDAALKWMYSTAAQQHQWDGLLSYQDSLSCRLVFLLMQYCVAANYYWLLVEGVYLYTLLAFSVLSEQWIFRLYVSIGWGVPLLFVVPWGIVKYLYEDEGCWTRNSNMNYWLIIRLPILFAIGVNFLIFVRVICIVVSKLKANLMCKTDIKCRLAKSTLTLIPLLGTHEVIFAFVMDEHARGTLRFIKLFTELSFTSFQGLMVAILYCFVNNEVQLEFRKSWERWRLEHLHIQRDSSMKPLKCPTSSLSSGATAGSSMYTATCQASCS

GIP receptor [2] = biological target: T2, GIP receptor (Homo sapiens, UniProt P48546); test: HitHunter cAMP assay, GIP receptor; details: for EC50: CHO cells stably expressing GIP receptor, cAMP accumulation, 30 min, read-out: EC50 GIP-1R; for Emax: CHO cells, cAMP, normalized to maximum signal from GIP (high) and DMSO (low), read-out: Emax GIP-1R
T2 sequence (P48546 22-466): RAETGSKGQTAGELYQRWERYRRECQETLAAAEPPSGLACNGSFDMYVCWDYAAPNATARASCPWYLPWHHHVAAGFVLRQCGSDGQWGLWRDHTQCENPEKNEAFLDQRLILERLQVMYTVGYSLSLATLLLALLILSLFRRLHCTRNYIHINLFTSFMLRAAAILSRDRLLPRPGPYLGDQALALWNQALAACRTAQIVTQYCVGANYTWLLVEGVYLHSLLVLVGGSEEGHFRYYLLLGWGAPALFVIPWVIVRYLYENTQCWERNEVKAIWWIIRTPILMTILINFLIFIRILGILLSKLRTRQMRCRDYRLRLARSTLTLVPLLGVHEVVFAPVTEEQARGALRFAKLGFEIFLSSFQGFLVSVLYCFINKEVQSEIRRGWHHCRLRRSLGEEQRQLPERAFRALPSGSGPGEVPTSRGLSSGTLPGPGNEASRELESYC

GIP receptor [3] = biological target: T2, GIP receptor; test: PathHunter β-arrestin assay, GIP receptor; set-up: host or cells: PathHunter CHO-K1 GIPR β-Arrestin Cell Line; details: β-arrestin-2 recruitment, PathHunter CHO-K1 GIPR β-Arrestin Cell Line, 90 min at 37° C.; normalized to GIP; read-out: GIPR β Arrestin EC50
GLP-1 receptor [4] = biological target: T1, GLP-1 receptor; test: PathHunter β-arrestin assay, GLP-1 receptor; set-up: host or cells: PathHunter CHO-K1 GLP1R β-Arrestin Cell Line; details: β-arrestin-2 recruitment, PathHunter CHO-K1 GLP1R β-Arrestin Cell Line, 90 min at 37° C.; normalized to GLP-1; read-out: GLP-1R β Arrestin EC50

Compound | EC50 (GLP-1 receptor [1]) | Emax (GLP-1 receptor [1]) | EC50 (GIP receptor [2]) | Emax (GIP receptor [2]) | EC50 (GIP receptor [3]) | EC50 (GLP-1 receptor [4])
CC[C@H](C)[C@H](NC(=O)[C@H](CC(C)C)NC(=O)[C@H](Cc1c[nH]c2ccccc12)NC(=O)[C@H](CCC(N)=O)NC(=O)[C@@H](NC(=O)[C@H](Cc1ccccc1)NC(=O)[C@H](C)NC(=O)[C@H](CCCCNC(=O)COCCOCCNC(=O)COCCOCCNC(=O)CC[C@H](NC(=O)CCCCCCCCCCCCCCCCCCC(=O)O)C(=O)O)NC(=O)[C@H](CCC(N)=O)NC(=O)[C@H](C)NC(=O)[C@@H](NC(=O)[C@H](CCCCN)NC(=O)[C@H](CC(=O)O)NC(=O)[C@H](CC(C)C)NC(=O)C(C)(C)NC(=O)[C@@H](NC(=O)[C@H](CO)NC(=O)[C@H](Cc1ccc(O)cc1)NC(=O)[C@H](CC(=O)O)NC(=O)[C@H](CO)NC(=O)[C@@H](NC(=O)[C@H](Cc1ccccc1)NC(=O)[C@@H](NC(=O)CNC(=O)[C@H](CC(C(=O)O)C(=O)O)NC(=O)CCNC(=O)C(C)(C)c1cc(F)cc(C#N)c1)[C@@H](C)O)[C@@H](C)O)[C@@H](C)CC)[C@@H](C)CC)C(C)C)C(=O)N[C@@H](C)C(=O)NCC(=O)NCC(=O)N1CCC[C@H]1C(=O)N[C@@H](CO)C(=O)N[C@@H](CO)C(=O)NCC(=O)N[C@@H](C)C(=O)N1CCC[C@H]1C(=O)N1CCC[C@H]1C(=O)N1CCC[C@H]1C(=O)N[C@@H](CO)C(N)=O [Compound 111] ({Isobutyryl(2-(3-CN-5-F-Ph))-βAla}-[Gla]GTFTSDYSI[Aib]LDKIAQK([AEEA-AEEA-γGlu-C20 diacid])AFVQWLIAGGPSSGAPPPS-NH2) | 0.001 to 0.01 µM | 95% | 0.01 to 0.1 µM | 105% | > 1 µM | > 1 µM
CC[C@H](C)[C@H](NC(=O)[C@H](CC(C)C)NC(=O)[C@H](Cc1c[nH]c2ccccc12)NC(=O)[C@H](CCC(N)=O)NC(=O)[C@@H](NC(=O)[C@H](Cc1ccccc1)NC(=O)[C@H](C)NC(=O)[C@H](CCCCNC(=O)COCCOCCNC(=O)COCCOCCNC(=O)CC[C@H](NC(=O)CCCCCCCCCCCCCCCCCCC(=O)O)C(=O)O)NC(=O)[C@H](CCC(N)=O)NC(=O)[C@H](C)NC(=O)[C@@H](NC(=O)[C@H](CCCCN)NC(=O)[C@H](CC(=O)O)NC(=O)[C@H](CC(C)C)NC(=O)C(C)(C)NC(=O)[C@@H](NC(=O)[C@H](CO)NC(=O)[C@H](Cc1ccc(O)cc1)NC(=O)[C@H](CC(=O)O)NC(=O)[C@H](CO)NC(=O)[C@@H](NC(=O)[C@H](Cc1ccccc1)NC(=O)[C@@H](NC(=O)CNC(=O)[C@H](CCC(=O)O)NC(=O)C[C@@H](C)NC(=O)C(C)(C)c1cc(F)cc(C#N)c1)[C@@H](C)O)[C@@H](C)O)[C@@H](C)CC)[C@@H](C)CC)C(C)C)C(=O)N[C@@H](C)C(=O)NCC(=O)NCC(=O)N1CCC[C@H]1C(=O)N[C@@H](CO)C(=O)N[C@@H](CO)C(=O)NCC(=O)N[C@@H](C)C(=O)N1CCC[C@H]1C(=O)N1CCC[C@H]1C(=O)N1CCC[C@H]1C(=O)N[C@@H](CO)C(N)=O [Compound 223] ({Isobutyryl(2-(3-CN-5-F-Ph))}-[d(β3hA)]EGTFTSDYSI[Aib]LDKIAQK([AEEA-AEEA-γGlu-C20 diacid])AFVQWLIAGGPSSGAPPPS-NH2) | 0.01 to 0.1 µM | 96% | 0.1 to 1 µM | 42% | > 1 µM | > 1 µM
CC[C@H](C)[C@H](NC(=O)[C@H](CO)NC(=O)[C@H](Cc1ccc(O)cc1)NC(=O)[C@H](CC(=O)O)NC(=O)[C@H](CO)NC(=O)[C@@H](NC(=O)[C@H](Cc1ccccc1)NC(=O)[C@@H](NC(=O)CNC(=O)[C@H](CCC(=O)O)NC(=O)CCNC(=O)C(C)(C)c1cc(F)cc(C#N)c1)[C@@H](C)O)[C@@H](C)O)C(=O)N[C@@H](Cc1ccc(O)cc1)C(=O)N[C@@H](CC(C)C)C(=O)N[C@@H](CC(=O)O)C(=O)N[C@@H](CCCCN)C(=O)N[C@@H](CCC(N)=O)C(=O)N[C@@H](C)C(=O)N[C@@H](C)C(=O)NC(C)(C)C(=O)N[C@@H](CCC(=O)O)C(=O)N[C@@H](Cc1ccccc1)C(=O)N[C@H](C(=O)N[C@@H](CCCCNC(=O)COCCOCCNC(=O)COCCOCCNC(=O)CC[C@H](NC(=O)CCCCCCCCCCCCCCCCCCC(=O)O)C(=O)O)C(=O)N[C@@H](Cc1c[nH]c2ccccc12)C(=O)N[C@@H](CC(C)C)C(=O)N[C@@H](CC(C)C)C(=O)N[C@@H](C)C(=O)NCC(=O)NCC(=O)N1CCC[C@H]1C(=O)N[C@@H](CO)C(=O)N[C@@H](CO)C(=O)NCC(=O)N[C@@H](C)C(=O)N1CCC[C@H]1C(=O)N1CCC[C@H]1C(=O)N1CCC[C@H]1C(=O)N[C@@H](CO)C(N)=O)C(C)C [Compound 103] ({Isobutyryl(2-(3-CN-5-F-Ph))-βAla}-EGTFTSDYSIYLDKQAA[Aib]EFVK([AEEA-AEEA-γGlu-C20 diacid])WLLAGGPSSGAPPPS-NH2) | 0.0001 to 0.001 µM | 89% | 0.01 to 0.1 µM | 96% | > 1 µM | > 1 µM
CC[C@H](C)[C@H](NC(=O)[C@H](CC(C)C)NC(=O)[C@H](Cc1c[nH]c2ccccc12)NC(=O)[C@H](CCC(N)=O)NC(=O)[C@@H](NC(=O)[C@H](Cc1ccccc1)NC(=O)[C@H](C)NC(=O)[C@H](CCCCNC(=O)COCCOCCNC(=O)COCCOCCNC(=O)CC[C@H](NC(=O)CCCCCCCCCCCCCCCCCCC(=O)O)C(=O)O)NC(=O)[C@H](CCC(N)=O)NC(=O)[C@H](C)NC(=O)[C@@H](NC(=O)[C@H](CCCCN)NC(=O)[C@H](CC(=O)O)NC(=O)[C@H](CC(C)C)NC(=O)C(C)(C)NC(=O)[C@@H](NC(=O)[C@H](CO)NC(=O)[C@H](Cc1ccc(O)cc1)NC(=O)[C@H](CC(=O)O)NC(=O)[C@H](CO)NC(=O)[C@@H](NC(=O)[C@H](Cc1ccccc1)NC(=O)[C@@H](NC(=O)CNC(=O)[C@@H](CC(=O)O)NC(=O)CCNC(=O)C(C)(C)c1cc(F)cc(C#N)c1)[C@@H](C)O)[C@@H](C)O)[C@@H](C)CC)[C@@H](C)CC)C(C)C)C(=O)N[C@@H](C)C(=O)NCC(=O)NCC(=O)N1CCC[C@H]1C(=O)N[C@@H](CO)C(=O)N[C@@H](CO)C(=O)NCC(=O)N[C@@H](C)C(=O)N1CCC[C@H]1C(=O)N1CCC[C@H]1C(=O)N1CCC[C@H]1C(=O)N[C@@H](CO)C(N)=O [Compound 127] ({Isobutyryl(2-(3-CN-5-F-Ph))-βAla}-[dD]GTFTSDYSI[Aib]LDKIAQK([AEEA-AEEA-γGlu-C20 diacid])AFVQWLIAGGPSSGAPPPS-NH2) | 0.001 to 0.01 µM | 93% | 0.1 to 1 µM | 82% | > 1 µM | > 1 µM
CC[C@H](C)[C@H](NC(=O)[C@H](CC(C)C)NC(=O)[C@H](Cc1c[nH]c2ccccc12)NC(=O)[C@H](CCC(N)=O)NC(=O)[C@@H](NC(=O)[C@H](Cc1ccccc1)NC(=O)[C@H](C)NC(=O)[C@H](CCCCNC(=O)COCCOCCNC(=O)COCCOCCNC(=O)CC[C@H](NC(=O)CCCCCCCCCCCCCCCCCCC(=O)O)C(=O)O)NC(=O)[C@H](CCC(N)=O)NC(=O)[C@H](C)NC(=O)[C@@H](NC(=O)[C@H](CCCCN)NC(=O)[C@H](CC(=O)O)NC(=O)[C@H](CC(C)C)NC(=O)C(C)(C)NC(=O)[C@@H](NC(=O)[C@H](CO)NC(=O)[C@H](Cc1ccc(O)cc1)NC(=O)[C@H](CC(=O)O)NC(=O)[C@H](CO)NC(=O)[C@@H](NC(=O)[C@](C)(Cc1ccccc1F)NC(=O)[C@@H](NC(=O)CNC(=O)[C@H](CCC(=O)O)NC(=O)CCNC(=O)C(C)(C)c1cc(F)cc(C#N)c1)[C@@H](C)O)[C@@H](C)O)[C@@H](C)CC)[C@@H](C)CC)C(C)C)C(=O)N[C@@H](C)C(=O)NCC(=O)NCC(=O)N1CCC[C@H]1C(=O)N[C@@H](CO)C(=O)N[C@@H](CO)C(=O)NCC(=O)N[C@@H](C)C(=O)N1CCC[C@H]1C(=O)N1CCC[C@H]1C(=O)N1CCC[C@H]1C(=O)N[C@@H](CO)C(N)=O [Compound 245] ({Isobutyryl(2-(3-CN-5-F-Ph))-βAla}-EGT[αMePhe(2-F)]TSDYSI[Aib]LDKIAQK([AEEA-AEEA-γGlu-C20 diacid])AFVQWLIAGGPSSGAPPPS-NH2) | 0.0001 to 0.001 µM | 122% | 0.0001 to 0.001 µM | 90% | < 1 µM | > 1 µM
